# Legend:
# [1] = tested on: SARS-CoV-2; assay: Antiviral activity against wild type SARS-CoV-2 infected in African green monkey VeroE6/TMPRSS2 cells at 1 MOI assessed as reduction in plaque formation measured after 48 hrs by measuring luciferase activity assay; format: functional, organism-based; conditions: Severe acute respiratory syndrome coronavirus 2, VeroE6/TMPRSS2, 48 h
# [2] = tested on: SARS-CoV-2; assay: Antiviral activity against SARS-CoV-2 B.1.1.7 (Alpha) infected in African green monkey VeroE6/TMPRSS2 cells at 1 MOI assessed as reduction in plaque formation measured after 48 hrs by measuring luciferase activity assay; format: functional, organism-based; conditions: Severe acute respiratory syndrome coronavirus 2, B.1.1.7 (Alpha), VeroE6/TMPRSS2, 48 h
# [3] = tested on: SARS-CoV-2; assay: Antiviral activity against SARS-CoV-2 B.1.617.1 (Kappa) infected in African green monkey VeroE6/TMPRSS2 cells at 1 MOI assessed as reduction in plaque formation measured after 48 hrs by measuring luciferase activity assay; format: functional, organism-based; conditions: Severe acute respiratory syndrome coronavirus 2, B.1.617.1 (Kappa), VeroE6/TMPRSS2, 48 h
# [4] = tested on: SARS-CoV-2; assay: Antiviral activity against SARS-CoV-2 P.3 (Theta) infected in African green monkey VeroE6/TMPRSS2 cells at 1 MOI assessed as reduction in plaque formation measured after 48 hrs by measuring luciferase activity assay; format: functional, organism-based; conditions: Severe acute respiratory syndrome coronavirus 2, P.3 (Theta), VeroE6/TMPRSS2, 48 h
# [5] = AUC in ICR mouse measured at 150 mg/kg, po upto 24 hrs by LC-MS/MS analysis; format: ADME, organism-based; conditions: in vivo
# [6] = Half life in ICR mouse measured at 150 mg/kg, po upto 24 hrs by LC-MS/MS analysis; format: ADME, organism-based; conditions: in vivo
# [7] = Oral bioavailability in ICR mouse measured at 150 mg/kg upto 24 hrs by LC-MS/MS analysis; format: ADME, organism-based; conditions: in vivo
# [8] = tested on: SARS-CoV-2; assay: Antiviral activity against wild type SARS-CoV-2 infected in African green monkey Vero E6 cells assessed as inhibition of virus induced cytopathic effect by MTT assay; format: functional, organism-based; conditions: Severe acute respiratory syndrome coronavirus 2, Vero C1008
# [9] = tested on: SARS-CoV-2; assay: Antiviral activity against SARS-CoV-2 Alpha infected in African green monkey Vero E6 cells assessed as inhibition of virus induced cytopathic effect by MTT assay; format: functional, organism-based; conditions: Severe acute respiratory syndrome coronavirus 2, Alpha, Vero C1008
# [10] = tested on: SARS-CoV-2; assay: Antiviral activity against SARS-CoV-2 Beta infected in African green monkey Vero E6 cells assessed as inhibition of virus induced cytopathic effect by MTT assay; format: functional, organism-based; conditions: Severe acute respiratory syndrome coronavirus 2, Beta, Vero C1008
# [11] = tested on: SARS-CoV-2; assay: Antiviral activity against SARS-CoV-2 Delta infected in African green monkey Vero E6 cells assessed as inhibition of virus induced cytopathic effect by MTT assay; format: functional, organism-based; conditions: Severe acute respiratory syndrome coronavirus 2, Delta, Vero C1008
# [12] = tested on: SARS-CoV-2; assay: Antiviral activity against SARS-CoV-2 Omicron BA.1 infected in African green monkey Vero E6 cells assessed as inhibition of virus induced cytopathic effect by MTT assay; format: functional, organism-based; conditions: Severe acute respiratory syndrome coronavirus 2, Omicron BA.1, Vero C1008
# [13] = tested on: SARS-CoV-2; assay: Antiviral activity against SARS-CoV-2 Omicron BA.5 infected in African green monkey Vero E6 cells assessed as inhibition of virus induced cytopathic effect by MTT assay; format: functional, organism-based; conditions: Severe acute respiratory syndrome coronavirus 2, Omicron BA.5, Vero C1008
# [14] = Cmax in cynomolgus monkey at 5 mg/kg, po; format: ADME, organism-based, Macaca fascicularis; conditions: in vivo
# [15] = Tmax in cynomolgus monkey at 5 mg/kg, po; format: ADME, organism-based, Macaca fascicularis; conditions: in vivo
# [16] = AUC (0 to last) in cynomolgus monkey at 5 mg/kg, po; format: ADME, organism-based, Macaca fascicularis; conditions: in vivo
# [17] = Half life in cynomolgus monkey at 5 mg/kg, po; format: ADME, organism-based, Macaca fascicularis; conditions: in vivo
# [18] = biological target: T1, Replicase polyprotein 1ab (Severe acute respiratory syndrome coronavirus 2, UniProt P0DTD1); assay: Inhibition of SARS-CoV-2 3CLp using fluorescent substrate by FRET assay
# [19] = tested on: SARS-CoV-2; assay: Antiviral activity against SARS-CoV-2 infected in African green monkey Vero E6 cells at 0.1 MOI assessed as inhibition of virus induced cytopathic effect by CCK8 assay; format: functional, organism-based; conditions: Severe acute respiratory syndrome coronavirus 2, Vero C1008
# [20] = tested on: SARS-CoV-2; assay: Antiviral activity against SARS-CoV-2 infected in Caco-2-ACE2 assessed as inhibition of viral replication; format: functional, organism-based; conditions: Severe acute respiratory syndrome coronavirus 2, Caco-2-ACE2
# [21] = biological target: T1, Replicase polyprotein 1ab; assay: Inhibition of SARS-CoV-2 Main protease assessed as hydrolysis of quenched fluorogenic substrate
# [22] = Half life in po dosed rat; format: ADME, organism-based; conditions: in vivo
# [23] = Tmax in po dosed rat; format: ADME, organism-based; conditions: in vivo
# [24] = Cmax in po dosed rat; format: ADME, organism-based; conditions: in vivo
# [25] = AUClast in po dosed rat; format: ADME, organism-based; conditions: in vivo
# [26] = Oral bioavailability in rat; format: ADME, organism-based; conditions: in vivo
smiles,measurement,setting,value
[2H][C@](C(=O)N[C@@H](C)c1ccc(F)cc1)(c1cccnc1)N(C(=O)C(C)=O)c1ccc2c(c1)oc1ccccc12,EC50,[1],11.4 nM
same,EC50,[2],20.3 nM
same,EC50,[3],34.4 nM
same,EC50,[4],23.7 nM
same,AUC at 24 h,[5],29200 ng·h/mL
same,half-life,[6],1.42 h
same,bioavailability,[7],92.9%
O=C(NC1CCCC1)C(=O)[C@H](C[C@@H]1CCNC1=O)NC(=O)[C@@H]1[C@H]2CCC[C@H]2CN1C(=O)[C@@H](NC(=O)C(F)(F)F)C1CCCCC1,EC50,[8],95 nM
same,EC50,[9],130 nM
same,EC50,[10],277 nM
same,EC50,[11],97 nM
same,EC50,[12],86 nM
same,EC50,[13],130 nM
same,Cmax,[14],102 nM
same,Tmax,[15],1.5 h
same,AUC(0-t),[16],0.458 µM·h
same,half-life,[17],14.9 h
O=C[C@@H](C[C@H]1CCNC1=O)NC(=O)[C@H]1[C@@H]2CCC[C@@H]2CN1C(=O)OCc1ccccc1,IC50,[18],51 nM
same,EC50,[19],2560 nM
same,EC50,[20],5240 nM
Cc1c(Br)cncc1NC[C@@H](N)CC1CCCCC1,IC50,[21],7500 nM
Cn1cc2cc(/N=c3\[nH]c(=O)n(Cc4cnn[nH]4)c(=O)n3Cc3cc(F)c(F)cc3F)c(Cl)cc2n1,half-life,[22],2.51 h
same,Tmax,[23],1 h
same,Cmax,[24],6270 ng/mL
same,AUC(0-t),[25],32600 ng·h/mL
same,bioavailability,[26],88.1%
